These results are taken from US20100215782A1, “NOVEL MITOCHONDRIAL UNCOUPLING METHODS AND COMPOSITIONS FOR ENHANCING ADIPOCYTE THERMOGENESIS” (METAPROTEOMICS, LLC, priority 2008, published 2010).

One series deals with 3T3-L1 adipocytes. Put plainly: JC-1 mitochondrial membrane potential (uncoupling) assay in 3T3-L1 adipocytes. The class given is cell-based, murine. The note with it: for Monomer/Aggregate Ratio: 3T3-L1 adipocytes, test material 25 μg/mL, JC-1 fluorescence relative to JC-1 negative control, values >1.06 significant (p<0.05). From the text: Objective—The objective of this experiment was to observe the dose-response effect of the mitochondrial uncoupler DNP on mitochondrial membrane potential in 3T3-L1 adipocytes using the lipophilic cationic dye, 5,5′,6,6′-tetrachloro-1,1′,3,3′-tetraethylbenzimidazolylcarbocyanine iodide (JC-1).
The Model—The 3T3-L1 murine fibroblast model is commonly used to study the potential effects of compounds on white adipose tissue in vitro. This cell line allows investigation of stimuli and mechanisms that regulate inflammatory mediators of cytokine secretion of the adipocyte. As preadipocytes, 3T3-L1 cells have a fibroblastic appearance. They replicate in culture until they form a confluent monolayer, after which cell-cell contact triggers Go/G1 growth arrest. Terminal differentiation of 3T3-L1 cells to adipocytes depends on proliferation of both pre- and post-confluent preadipocytes. Subsequent stimulation with 3-isobutyl-1-methylxanthane, dexamethasone, and high does of insulin (MDI) for two days prompts these cells to undergo post-confluent mitotic clonal expansion, exit the cell cycle, and begin to express adipocyte-specific genes. Approximately five days after induction of differentiation, more than 90% of the cells display the characteristic lipid-filled adipocyte phenotype. At this stage of differentiation, response to mitochondrial uncouplers such as DNP may be assessed.
Cell culture and Treatment—The murine fibroblast cell line 3T3-L1 was purchased from the American Type Culture Collection (Manassas, Va.) and sub-cultured according to instructions from the supplier. Prior to experiments, cells were cultured in DMEM containing 10% FBS-HI added 50 units penicillin/ml and 50 μg streptomycin/ml, and maintained in log phase prior to experimental setup. Cells were grown in a 5% CO2 humidified incubator at 37° C. Components of the pre-confluent medium included: (1) 10% FBS/DMEM (Fetal Bovine Serum/Dulbecco's Modified Eagle's Medium) containing 4.5 g glucose/L; (2) 50 U/ml penicillin; and (3) 50 μg/ml streptomycin. Growth medium was made by adding 50 ml of heat inactivated FBS and 5 ml of penicillin/streptomycin to 500 ml DMEM. This medium was stored at 4° C. Before use, the medium was warmed to 37° C. in a water bath.
[…] cells were seeded at an initial density of 6×10^4 cells/cm^2 in 24-well plates. For two days, the cells were allowed grow to reach confluence. Following confluence, the cells were forced to differentiate into adipocytes by the addition of differentiation medium; this medium consisted of (1) 10% FBS/DMEM (high glucose); (2) 0.5 mM methylisobutylxanthine; (3) 0.5 μM dexamethasone and (4) 10 μg/ml insulin (MDI medium). After three days, the medium was changed to post-differentiation medium consisting of 10 μg/ml insulin in 10% FBS/DMEM.
Treatment with Test Material 2,4-Dinitrophenol—On Day 6 post differentiation, DNP was dissolved in dimethyl sulfoxide (DMSO) and added to the culture medium to achieve concentrations of 500, 100, 50, 10 or 5 μM per column for 60 min at 37° C. JC-1 was then added to the test and negative control columns in 10 μL DMSO to achieve a final concentration of 5 μM and allowed to incubate at 37° C. for an additional 30 min. A DMSO and solvent plus JC-1 control were run concurrently with each experiment. A Packard Fluorocount spectrofluorometer (Model#BF10000, Meridan, Conn.) set at 560 nm excitation and 590 nm emission was used for quantification of aggregate fluorescence and at 485 nm excitation/530 emission for monomer fluorescence.
Measuring mitochondrial membrane potential changes (ΔΨm)—JC-1 (Sigma, St. Louis, Mo.) has advantages over other cationic dyes in that it can selectively enter into mitochondria and reversibly change color from green to red as the membrane potential increases. In healthy cells with high mitochondrial membrane potential (ΔΨm), JC-1 spontaneously forms complexes known as J-aggregates with intense red fluorescence. […]

The conditions of series [1]: cited from earlier work.

With `CNCC(O)c1ccc(O)cc1` (centres unmarked) [Synephrine], the “Monomer/Aggregate Ratio” value with 3T3-L1 adipocytes was found to be 1.06.

In the case of `C[C@@H]1O[C@@H](OC[C@H]2O[C@@H](Oc3c(-c4ccc(O)c(O)c4)oc4cc(O)cc(O)c4c3=O)[C@H](O)[C@@H](O)[C@@H]2O)[C@H](O)[C@H](O)[C@H]1O` [Rutin Powder, Rutin], in the series on 3T3-L1 adipocytes, the “Monomer/Aggregate Ratio” value is on record as 1.37.

`CCCCC[C@H](O)CC(=O)CCc1ccc(O)c(OC)c1` [6-Gingerol]: the “Monomer/Aggregate Ratio” value in the series on 3T3-L1 adipocytes amounted to 1.14.

`Oc1ccc(C=Cc2cc(O)cc(O)c2)cc1` [Resveratrol]: the “Monomer/Aggregate Ratio” value in the series with 3T3-L1 adipocytes is 1.48.

Turning to `COc1cc(/C=C/C(=O)CC(=O)/C=C/c2ccc(O)c(OC)c2)ccc1O` [Curcumin], the “Monomer/Aggregate Ratio” value in the series on 3T3-L1 adipocytes worked out at 3.89.

As for `O=[N+]([O-])c1ccc(O)c([N+](=O)[O-])c1` [DNP, 2,4-dinitrophenol], in series [1] (30 hypertensive patients), the “Average fall in diastolic blood pressure” value is reported as 12.6% and the “Average fall in systolic blood pressure” value is 9.4%. Moreover, in series [1] (approximately 5 mg/kg body weight, feeling of warmth and increased perspiration reported), the Dose generally well-tolerated entry is recorded as “up to 0.5 g”. Further, the “Gradual increase in metabolic rate (average)” value in series [1] (daily dosing of 3-5 mg/kg, maintained for a minimum of ten weeks) is 40%. Moreover, in series [1] (human, in vivo), the “Dose producing profuse sweating, increased heart rate, respiration rate and excessive body temperature rises” value is given as “Above 10 mg/kg”. Moreover, the “Average increase in metabolic rate for each dosage increment of 0.1 g” value in series [1] (obese patients) is 11%. Also, the “Increase in resting metabolic rate” value in series [1] (single doses of 3-5 mg/kg, within the first hour, maintained for 24 hours) is reported as 20-30%. In addition, the “Effect on blood pressure or heart rate” value in series [1] (therapeutic doses, normal patients) is “no effect on blood pressure or heart rate”. Also, the “Potency of positive control (decrease of ΔΨm)” value in the series on 3T3-L1 adipocytes (18.4 μg DNP/mL) is listed as 45%. Moreover, in the series with 3T3-L1 adipocytes (100 μM 2,4-dinitrophenol (18.4 μg DNP/mL), 95% CI=1.34-1.39, n=200, over the experimental period), the “Mean M/A (monomer/aggregate ratio) of positive control” value is given as 1.36. Besides, the “Concentration at which monomer/aggregate ratio is significantly increased (p<0.05) relative to JC-1 negative controls” value in the series with 3T3-L1 adipocytes (3T3-L1 adipocytes, 500, 100, 50, 10 or 5 μM for 60 min, FIG. 2) is at least 50 µM. Besides, the “Change of ΔΨm in 3T3-L1 adipocytes (in words)” value with 3T3-L1 adipocytes (relative to negative JC-1 controls) is reported as “dose-related decreased in ΔΨm”.
